Results taken from patent US12600732B2, “Bifunctional compounds for degrading BTK via ubiquitin proteosome pathway” (NURIX THERAPEUTICS, INC., priority 2019, dated 2026).
pEC50: −log10 of the molar value.

What was measured:
[1] = Compound plasma exposure in cyno DRF study; type: in vivo; details: cynomolgus monkey, po
Ikaros = molecular target: T1, Ikaros (Homo sapiens, UniProt Q13422+Q96SW2); test: Ikaros degradation in Mantle Cell Lymphoma lines (flow cytometry); type: cell-based; details: treatment time 24 h
T1 construct: endogenous in cells; host or cells: Mino, Rec-1
From the text: Ikaros and Aiolos Degradation in Mantle Cell Lymphoma Lines (Ikaros and Aiolos Flow Cytometry)
This example evaluates the IMiD activity of CTMs in cellular models of Mantle Cell Lymphoma (MCL). […] These assays are to determine potency of CTMs for degrading IMiD neo-substrates in cellular models of MCL and to generate data to inform efficacy studies in MCL xenografts.

CRBN neo-substrates = test: CRBN neo-substrate levels / IMiD activity in MOLT4 and TMD8 cells (FIGS. 10-12); type: cell-based; details: FIG. 12
From the text: FIGS. 10A and 10B provide effects of compounds 73, 72, 121, and 44, and control compounds, on neo-substrate and ITK or BTK levels after twenty-four hours in MOLT4 cells (FIG. 10A) and TMD8 cells (FIG. 10B).
FIGS. 11A and 11B provide effects of compounds 44, 72, and 149, and control compounds, on CRBN neo-substrate and ITK levels in MOLT4 cells (FIG. 11A) and TMD8 cells (FIG. 11B).
FIG. 12 provides effects of compounds 130, 149, and 44 on ITK levels and IMiD activity.

[2] = test system: TMD8 BTK C481S tumor cells; test: TMD8 BTK C481S xenograft efficacy study; type: in vivo, mouse; details: PO, QD
Description: […] Tumor growth inhibition (% TGI) were calculated on the final day of measurement using the equation [1−(T−T0/C−T0)]×100, where T and C represent the mean size of tumors in the treated (T) and control (C) groups, and T0 refers to the tumor size at randomization.
This example examines the activity of various BTK CTMs in relevant disease models, including the WT and C481S TMD8 model, which models B cell malignancies with/without inhibitor-driven BTK mutations at C481.

BTK [3] = molecular target: BTK (Homo sapiens, UniProt Q06187); test: BTK degradation (Total BTK HTRF) in Mino cells (Mantle Cell Lymphoma model); type: cell-based; set-up: endogenous in cells; host or cells: TMD8, Mino, Rec-1; details: treatment time 4 h
Description: BTK levels were determined using Cisbio Total-BTK HTRF (Homologous Time-Resolved Fluorescence) kit (63ADK064PEG) according to the manufacturer's protocol. Briefly, cells were incubated in 1× supplied lysis buffer for 30 minutes. In an opaque white low volume 96-well plate (Cisbio, 66PL96005), cell lysate was combined with two different specific BTK antibodies, one conjugated with Eu^3+-Cryptate FRET donor and one conjugated with d2 FRET acceptor. Assay controls include wells containing cell lysate with only the Eu^3+-Cryptate FRET donor antibody and wells containing both HTRF antibodies and lysis buffer without cells or control lysate provided by Cisbio. HTRF ratio was calculated as (acceptor signal at 665 nm/donor signal at 620 nm)×10^4. Background HTRF levels were determined from the control well containing the donor, but no acceptor, antibody. Background HTRF levels were subtracted from all samples. Readouts were reported as HTRF levels relative to HTRF levels of DMSO-treated cells. Four-parameter non-linear regressions were performed in GraphPad Prism 7.02 to obtain DC50 values.
BTK Degradation (Total BTK HTRF) at Four Hours in Mino Cells
This example evaluates the potency of CTMs in a model of Mantle Cell Lymphoma (MCL). To evaluate potential therapeutic indications, BTK CTMs were assayed in models of Mantle Cell Lymphoma as with the TMD8 cells (ABC-DLBCL) above. Tested CTMs had similar potencies for BTK degradation in the MCL cell lines (Mino and Rec-1) and TMD8 cells.

BTK [4] = test: PD data from cyno (BTK degradation); type: in vivo; details: blood
From the text: In this example, compounds were profiled for activity in non-mouse species.

TMD8 C481S cells = test: Cell viability assay (CellTiter-Glo), TMD8 C481S cells
[5] = Compound plasma exposure in mouse (CD-1), daily oral dosing, same table as the cyno DRF study; type: in vivo; details: CD-1, mouse
[6] = 30 mg/kg, 30 mg/kg PO, 1 day of dosing
[7] = 100 mg/kg, 100 mg/kg PO, 1 day of dosing
[8] = 100 mg/kg, 100 mg/kg PO, 14 days of dosing
[9] = 30 mg/kg, 30 mg/kg PO, 14 days of dosing
[10] = 300 mg/kg, 300 mg/kg PO, 1 day of dosing
[11] = 300 mg/kg, 300 mg/kg PO, 14 days of dosing

T1 sequence (Q13422 whole entry): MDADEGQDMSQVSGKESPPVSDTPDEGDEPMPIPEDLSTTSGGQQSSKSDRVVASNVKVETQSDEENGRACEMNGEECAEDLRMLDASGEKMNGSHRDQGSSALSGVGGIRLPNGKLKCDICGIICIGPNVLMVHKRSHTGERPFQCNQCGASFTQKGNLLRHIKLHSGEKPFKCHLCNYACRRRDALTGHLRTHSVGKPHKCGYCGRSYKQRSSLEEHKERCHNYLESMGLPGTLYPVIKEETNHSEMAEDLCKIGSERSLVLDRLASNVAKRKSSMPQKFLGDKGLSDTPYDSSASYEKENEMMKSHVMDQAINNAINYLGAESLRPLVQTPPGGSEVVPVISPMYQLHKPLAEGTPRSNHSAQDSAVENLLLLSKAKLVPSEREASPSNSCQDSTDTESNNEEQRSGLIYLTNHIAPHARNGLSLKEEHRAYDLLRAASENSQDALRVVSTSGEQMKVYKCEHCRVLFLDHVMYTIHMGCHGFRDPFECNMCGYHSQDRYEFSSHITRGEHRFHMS
T1 sequence (Q96SW2 whole entry): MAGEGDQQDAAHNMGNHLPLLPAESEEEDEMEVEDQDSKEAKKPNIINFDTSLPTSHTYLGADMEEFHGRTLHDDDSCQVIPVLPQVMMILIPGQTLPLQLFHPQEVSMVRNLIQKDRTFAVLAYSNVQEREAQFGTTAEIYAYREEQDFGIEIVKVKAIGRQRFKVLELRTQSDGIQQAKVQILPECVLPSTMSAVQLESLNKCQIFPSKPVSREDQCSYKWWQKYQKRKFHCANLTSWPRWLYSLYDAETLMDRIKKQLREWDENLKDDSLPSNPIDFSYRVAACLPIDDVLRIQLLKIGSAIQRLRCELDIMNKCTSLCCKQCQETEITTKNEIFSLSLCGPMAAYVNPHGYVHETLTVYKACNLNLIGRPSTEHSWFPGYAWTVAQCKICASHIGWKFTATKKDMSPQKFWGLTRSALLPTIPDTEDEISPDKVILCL
T1 sequence (Q16531 whole entry partner): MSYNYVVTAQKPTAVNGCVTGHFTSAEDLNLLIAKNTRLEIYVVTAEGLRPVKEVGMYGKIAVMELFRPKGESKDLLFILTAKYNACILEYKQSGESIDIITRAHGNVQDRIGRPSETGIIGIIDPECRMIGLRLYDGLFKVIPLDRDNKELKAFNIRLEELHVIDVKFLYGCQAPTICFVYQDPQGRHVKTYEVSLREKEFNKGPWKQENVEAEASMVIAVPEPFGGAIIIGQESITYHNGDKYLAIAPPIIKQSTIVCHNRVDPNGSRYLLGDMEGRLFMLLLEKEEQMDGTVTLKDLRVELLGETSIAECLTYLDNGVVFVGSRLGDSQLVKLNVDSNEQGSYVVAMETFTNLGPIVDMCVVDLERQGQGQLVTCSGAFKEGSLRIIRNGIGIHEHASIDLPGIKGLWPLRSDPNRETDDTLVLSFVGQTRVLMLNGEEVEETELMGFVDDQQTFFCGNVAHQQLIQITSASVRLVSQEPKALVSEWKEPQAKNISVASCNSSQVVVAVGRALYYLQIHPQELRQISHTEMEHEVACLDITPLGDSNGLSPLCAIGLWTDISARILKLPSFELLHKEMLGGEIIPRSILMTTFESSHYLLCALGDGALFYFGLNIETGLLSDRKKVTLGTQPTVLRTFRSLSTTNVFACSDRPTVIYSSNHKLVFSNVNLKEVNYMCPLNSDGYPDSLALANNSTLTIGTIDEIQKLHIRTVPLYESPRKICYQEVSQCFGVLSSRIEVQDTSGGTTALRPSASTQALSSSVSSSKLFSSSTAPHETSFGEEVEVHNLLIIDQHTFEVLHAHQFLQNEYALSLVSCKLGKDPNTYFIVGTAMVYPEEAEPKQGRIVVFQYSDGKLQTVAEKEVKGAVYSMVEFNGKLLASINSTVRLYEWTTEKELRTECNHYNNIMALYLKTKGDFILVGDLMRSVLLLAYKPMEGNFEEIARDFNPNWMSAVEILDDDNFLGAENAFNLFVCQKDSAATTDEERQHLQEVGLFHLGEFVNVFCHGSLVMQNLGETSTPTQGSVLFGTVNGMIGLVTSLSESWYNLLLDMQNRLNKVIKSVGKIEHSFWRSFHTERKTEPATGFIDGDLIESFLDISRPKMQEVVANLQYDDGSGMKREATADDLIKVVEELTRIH
Chain of BTK (Homo sapiens, UniProt Q06187) (Q06187 whole entry): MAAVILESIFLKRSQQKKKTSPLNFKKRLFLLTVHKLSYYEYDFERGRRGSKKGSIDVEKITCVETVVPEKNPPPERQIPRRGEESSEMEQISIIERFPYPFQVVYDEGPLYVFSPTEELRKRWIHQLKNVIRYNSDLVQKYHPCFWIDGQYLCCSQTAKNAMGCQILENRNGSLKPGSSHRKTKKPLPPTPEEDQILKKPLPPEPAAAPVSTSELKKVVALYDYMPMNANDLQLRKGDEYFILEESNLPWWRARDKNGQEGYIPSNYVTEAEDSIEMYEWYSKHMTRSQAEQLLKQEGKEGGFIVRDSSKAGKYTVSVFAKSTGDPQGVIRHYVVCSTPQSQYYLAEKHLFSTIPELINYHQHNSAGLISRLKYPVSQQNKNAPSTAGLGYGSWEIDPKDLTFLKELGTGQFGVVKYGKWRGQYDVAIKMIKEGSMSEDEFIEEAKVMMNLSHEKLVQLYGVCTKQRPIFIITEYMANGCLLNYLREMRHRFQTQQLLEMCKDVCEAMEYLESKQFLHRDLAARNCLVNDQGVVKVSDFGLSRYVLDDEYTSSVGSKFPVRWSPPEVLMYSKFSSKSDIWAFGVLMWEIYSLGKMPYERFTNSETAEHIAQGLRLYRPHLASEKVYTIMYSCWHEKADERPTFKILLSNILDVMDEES

CN1CCN([C@H]2CCCN(c3cnc(C(N)=O)c(Nc4ccc(C5CCN(CC6CCN(c7ccc(C(=O)NC8CCC(=O)NC8=O)nc7)CC6)CC5)cc4)n3)C2)C1=O (stereo partly drawn) [Compound 130]
AUC ([1]; 10 mg/kg, 10 mg/kg PO, 1 day of dosing): 0.172 µM·h
AUC [1, 6]: 0.582 µM·h
Cmax [1, 7]: 0.096 µM
AUC [1, 8]: 3.84 µM·h
DC50 (Ikaros; Mino cells): > 2000 nM
DC50 (Ikaros; Rec-1 cells): > 2000 nM
IMiD activity (CRBN neo-substrates): did not have IMiD activity
Tumor Growth Inhibition (relative to vehicle) ([2]; 10 mg/kg, 23 days of dosing): 58%
Tumor Growth Inhibition (relative to vehicle) ([2]; 10 mg/kg, 24 days of dosing): 90%
Tumor Growth Inhibition (relative to vehicle) ([2]; 30 mg/kg, 23 days of dosing): 79%
Tumor Growth Inhibition (relative to vehicle) ([2]; 30 mg/kg, 24 days of dosing): 100%
Tumor Growth Inhibition (relative to vehicle) ([2]; 90 mg/kg, 24 days of dosing): 100%
DC50 (BTK [3]): 0.58 nM
% BTK Remaining (BTK [4]; 1 mg/kg IV, 2 h): 8%
% BTK Remaining (BTK [4]; 1 mg/kg IV, 4 h): 6%
% BTK Remaining (BTK [4]; 1 mg/kg IV, 8 h): 5%
% BTK Remaining (BTK [4]; 1 mg/kg IV, 24 h): 13%
% BTK Remaining (BTK [4]; 10 mg/kg PO, 2 h): 4%
% BTK Remaining (BTK [4]; 10 mg/kg PO, 4 h): <1%
% BTK Remaining (BTK [4]; 10 mg/kg PO, 8 h): <3%
% BTK Remaining (BTK [4]; 10 mg/kg PO, 24 h): <1%
% BTK Remaining (BTK [4]; 30 mg/kg PO, 2 h): 6%
% BTK Remaining (BTK [4]; 30 mg/kg PO, 4 h): <1%
% BTK Remaining (BTK [4]; 30 mg/kg PO, 8 h): <1%
% BTK Remaining (BTK [4]; 30 mg/kg PO, 24 h): 1%
pEC50 (TMD8 C481S cells; Homo sapiens, TMD8, 72 h): 8.32
EMAX (% viable cells) (TMD8 C481S cells; TMD8 C481S cells, treatment time 72 h): 33%
AUC [5, 6]: 23.2 µM·h
Cmax [5, 6]: 2.2 µM
AUC [5, 9]: 21.1 µM·h
Cmax [5, 9]: 1.7 µM
AUC [5, 7]: 51.3 µM·h
Cmax [5, 7]: 3.8 µM
AUC [5, 8]: 49.8 µM·h
Cmax [5, 8]: 3.4 µM
AUC [5, 10]: 67 µM·h
Cmax [5, 10]: 5.1 µM
AUC [5, 11]: 72.2 µM·h
Cmax [5, 11]: 5.2 µM
